Where no end group is shown, it is not given here.
What was measured:
[1] = system: isolated islets of Langerhans; assay: Glucose-stimulated insulin production by isolated islets of Langerhans; type: cell-based, rats
Protocol: The following experiments illustrate the fact that subpeptides of amylin can act to reduce the amount of insulin produced by isolated islets of Langerhans in response to a standard glucose challenge. […] All experiments were performed by known methods used in experimental practice. See, e.g., Lacey PE, and Kostianovsky M, Method for the isolation of intact islets of Langerhans from the rat pancreas. Diabetes 1967; 16:35-39.
Briefly, rats were killed, and islets of Langerhans were isolated from their pancreases. Experiments were performed either with freshly isolated islets or after overnight incubation of islets (23 h) in standard culture medium and conditions at 37°C. […]
Production of insulin is expressed as µU/islet/h. […] The integrity of the islet response was assessed by comparing the responses after stimulation of different aliquots of islets by two and ten mmol/L glucose, respectively, and the strength of the inhibitory response was judged against that induced by 1 µg/ml (650 nmol/L) somatostatin. […]
The results are shown in TABLE 5 below and all results are expressed as ± standard error of the mean (s.e.m.). The significance of differences between the means of groups is assessed by the t-test. […] In all other experimental conditions, the significance of the inhibitory effect is measured against the effect of 10 mmol/L glucose alone.

soleus muscles strips = settings: synthetic subpeptides; data not shown

| Substance | inhibition of insulin secretion compared with that seen with amylin 27-37 ([1]; 10 mmol/L glucose, somatostatin 1 ug/mL (650 nmol/L), varying concentrations of CGRP 27-37) | trend of inhibition relative to that caused by amylin 27-37 ([1]; never reached significance) | activity in inhibiting glycogen synthesis (reducing incorporation of radioactive glucose into glycogen) (soleus muscles strips) |
| --- | --- | --- | --- |
| CGRP 27-37: subpeptide 27-37 of calcitonin gene related peptide, believed to affect the amylin receptor as an agonist (FVPTNVGSKAF; ends and bridges not checked; UniProt P06881 109-119, looked up, fragment) | no significant difference | slightly greater |  |
| Amylin 8-37 (ATQRLANFLVHSSNNFGAILSSTNVGSNTY; Islet amyloid polypeptide; UniProt P10997 41-70, looked up, fragment) [[5]] |  |  | significant activity was present |
